Legend:
[1] = test system: HSV-2; assay: HSV-2 plaque reduction assay in WI-38 cells; type: cell-based, herpes simplex virus type 2, strain 186; conditions: Human alphaherpesvirus 2, WI-38, 96 h, read-out: ID50 HSV-2
Procedure: (§1) Assays were performed in cell culture systems to determine the concentrations of compounds that are effective in preventing several kinds of viral infections.
(§2) HSV-1 (herpes simplex virus type 1, strain Schooler), HSV-2 (herpes simplex virus type 2, strain 186), VZV (varicella zoster virus, strain ELLEN), HCMV (human cytomegalovirus, strain AD 169), MuLV (murine leukemia virus, strain CAS), HIV (human immunodeficiency virus, strain HTLV-IIIB).
(§3) HSV-1, HSV-2, HCMV, and VZV antiviral assays: Virus was adsorbed to WI-38 cell culture monolayers in 6 well culture plates (Costar, Cambridge, Mass.) for 1 hour prior to addition of maintenance medium containing duplicate dilutions of the test compound. Inhibition of plaque development was evaluated on fixed and stained monolayers after 4 days incubation at 37° C. for HSV-1 and HSV-2 and after 6-7 days incubation at 37° C. for HCMV and VZV. ID50 values were determined from the drug concentration which conferred at least a 50% plaque reduction compared to virus controls.

[2] = test system: HCMV; assay: HCMV plaque reduction assay in WI-38 cells; type: cell-based, human cytomegalovirus, strain AD 169; conditions: Human betaherpesvirus 5, 6-7 days, 37° C, read-out: ID50 HCMV
Procedure: as §1, §2, §3

[3] = test system: HIV; assay: HIV antiviral assay, inhibition of CPE in CEM cells (XTT-PMS); type: cell-based, strain HTLV-IIIB; conditions: Human immunodeficiency virus 1, CCRF-CEM, 168 h, 7 days, read-out: ID50 HIV
Procedure: as §1, §2
HIV antiviral assay: Suspensions of CEM(Nara and Fischinger, Nature, 332:469, 1988) cells were infected at a multiplicity of infection (e.g. virus/cell) of 0.12 with HIV (strain HTLV-III B). […] Following incubation, viable cell numbers were counted in each well using a colorimetric assay following incubation of cells with XTT-PMS solution (XTT tetrazolium reagent plus phenazine methosulfate PMS).
Percent reduction of viral cytopathic effect (CPE) in drug treated compared to untreated virus infected cells, and percent reduction of cell viability in drug treated uninfected cells compared to untreated controls were calculated and plotted versus the drug concentrations tested. From these plots, the IDso (the minimum drug concentration that inhibits CPE by 50%) for each drug was calculated.

[4] = test system: VZV; assay: VZV plaque reduction assay in WI-38 cells; type: cell-based, varicella zoster virus, strain ELLEN; conditions: Human alphaherpesvirus 3, 6-7 days, 37° C, read-out: ID50 VZV
Procedure: as §1, §2, §3

Q: `O=c1[nH]c(=O)n([C@H]2C[C@@H](CO)[C@@H]2CO)cc1I` (relative stereo) [(1α,2β,3α)-1-[2,3-Bis(hydroxymethyl)cyclobutyl]-5-iodo-2,4(1H,3H)-pyrimidinedione] was tested. Which IC50 [1] did it give?
A: The IC50 was greater than 284 µM.

Q: And the IC50 [2]?
A: The IC50 was greater than 284 µM.

Q: `Nc1nc2c(ncn2[C@H]2C[C@@H](CO)[C@@H]2CO)c(=O)[nH]1` (relative stereo) [(1α,2β,3α)-9-[2,3-Bis(hydroxymethyl)cyclobutyl]guanine] was tested. Which IC50 [3] did it give?
A: Its IC50 is 30 µM.

Q: How did the IC50 [4] turn out when `Nc1nc2c(nnn2[C@H]2C[C@@H](CO)[C@@H]2CO)c(=O)[nH]1` (relative stereo) [(1α,2β,3α)-5-Amino-3-[2,3-bis(hydroxymethyl)cyclo-butyl]-3,6-dihydro-7H-1,2,3-triazolo[4,5-d]-pyrimidin-7-one] was run?
A: Its IC50 is 3.8 to 38 µM.

Q: How did the IC50 [3] turn out when `Nc1ncnc2c1ncn2[C@H]1C[C@@H](CO)[C@@H]1CO` (relative stereo) [(1α,2β,3α)-3-(6-Amino-9H-purin-9-yl)-1,2-cyclobutanedimethanol] was run?
A: The IC50 was 6.8 µM.

Q: `O=c1[nH]c(=O)n([C@H]2C[C@@H](CO)[C@@H]2CO)cc1/C=C/Br` (relative stereo) [[1α(E),2β,3α]-1-[2,3-Bis(hydroxymethyl)-cyclobutyl]-5-(2-bromoethenyl)-2,4(1H,3H)-pyrimidinedione] was tested. Which IC50 [1] did it give?
A: Its IC50 is greater than 302 µM.

Q: And the IC50 [2]?
A: The IC50 was greater than 302 µM.
